The values that follow come from US20110178070A1, “PI3K/mTOR INHIBITORS” (TAKEDA PHARMACEUTICAL COMPANY LIMITED, priority 2008, published 2011).

Assay [1] concerns the target T1, PI3Kalpha (PIK3CA/PIK3R1, p110 alpha/p85 alpha) (Homo sapiens, UniProt P42336).
T1 construct: recombinant human, full length, N-terminal His-tagged phosphoinositide-3-kinase catalytic subunit alpha polypeptide; His (N); purchased Invitrogen Corp. PV4788; host or cells: insect cells
As to the kind of experiment: Adapta universal kinase assay, inhibition of PI3Kalpha (Example B). As to conditions: for IC50: Table 1, 25 μM ATP, read-out: IC50 (nM) PI3Kα. It counts as biochemical. From the text: In contrast to ATP depletion assays, the Adapta™ assay is extremely sensitive to ADP formation such that a majority of the signal change occurs in the first 10-20% conversion of ATP to ADP. This makes the Adapta™ universal kinase assay ideally suited for use with low activity kinases.
The principle of the Adapta™ universal kinase assay is outlined below. The assay itself can be divided into two phases: a kinase reaction phase, and an ADP detection phase. In the kinase reaction phase, all components required for the kinase reaction are added to the well, and the reaction is allowed to incubate for 60 minutes. After the reaction, a detection solution consisting of a europium labeled anti-ADP antibody, an Alexa Fluor® 647 labeled ADP tracer, and EDTA (to stop the kinase reaction) is added to the assay well. ADP formed by the kinase reaction (in the absence of an inhibitor) will displace the Alexa Fluor® 647 labeled ADP tracer from the antibody, resulting in a decrease in the TR-FRET signal.
ADP formation is determined by calculating the emission ratio from the assay well. The emission ratio is calculated by dividing the intensity of the tracer (acceptor) emission by the intensity of the Eu (donor) emission at 615 nm as shown in the equation below.
Since the Adapta™ technology measures ADP formation (i.e. conversion of ATP to ADP) it can be used to measure any type of ATP hydrolysis, including intrinsic ATPase activity of kinases. In this case, the substrate is water, not a lipid or peptide (Kashem, et al., 2007, J. Biomol. Screen. 12, 1, 70-83).
The combination of recombinant human, full length, N-terminal His-tagged phosphoinositide-3-kinase catalytic subunit alpha polypeptide ([…], PI3Kalpha), expressed in and purified from insect cells along with co-expressed recombinant, full length, untagged phosphoinositide-3-kinase regulatory subunit 1 (p85 alpha) (combination also known as PIK3CA/PIK3R1; Invitrogen Corp. Cat # PV4788) was used as the enzyme for this assay.
The test compounds are screened at 1% DMSO (final) in the well. […] The PIP2:PS Substrate/Kinase Mixture was diluted 2× to working concentration in Kinase Buffer containing 50 mM HEPES pH 7.5, 0.1% CHAPS, and 1 mM EGTA. […] The Detection Mix was prepared in TR-FRET Dilution Buffer.
After the 1 hour Kinase Reaction incubation at room temperature, 5 μL of Detection Mix was added, followed by another 30 sec plate shake to ensure mixing, and the Detection Mix was allowed to equilibrate for 1 hour at room temperature.
Lipid substrates are prepared by creating lipid vesicles. In some cases, these vesicles include a carrier lipid, such as phosphatidylserine (PS). In the assay conditions section above, “PIP2:PS” refers to large unilamellar vesicles (LUVs) containing five mole percent L-α-Phosphatidylinositol-4,5-bisphosphate (PIP2) and ninety-five percent phosphatidylserine (PS), and the concentration listed refers only to the PIP2 substrate, not the PS carrier lipid.

The next assay has as its target mTOR (Homo sapiens, UniProt P42345). Briefly: Z-Lyte biochemical assay, inhibition of mTOR (Example A).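 On all read-outs here: synthetic Ser/Thr peptide with coumarin–fluorescein FRET pair, phosphorylation protects from protease cleavage, coumarin/fluorescein emission ratio after 400 nm excitation, 1 h kinase reaction, 10-point 3-fold titrations.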 As to conditions: for IC50: IC50 (nM) mTOR, Table 1, 10 μM ATP.

Each structure is given as a SMILES string. pIC50: −log10 of the molar value. Like-named read-outs stand apart in the source and are kept apart here.

T1 sequence (P42336 whole entry): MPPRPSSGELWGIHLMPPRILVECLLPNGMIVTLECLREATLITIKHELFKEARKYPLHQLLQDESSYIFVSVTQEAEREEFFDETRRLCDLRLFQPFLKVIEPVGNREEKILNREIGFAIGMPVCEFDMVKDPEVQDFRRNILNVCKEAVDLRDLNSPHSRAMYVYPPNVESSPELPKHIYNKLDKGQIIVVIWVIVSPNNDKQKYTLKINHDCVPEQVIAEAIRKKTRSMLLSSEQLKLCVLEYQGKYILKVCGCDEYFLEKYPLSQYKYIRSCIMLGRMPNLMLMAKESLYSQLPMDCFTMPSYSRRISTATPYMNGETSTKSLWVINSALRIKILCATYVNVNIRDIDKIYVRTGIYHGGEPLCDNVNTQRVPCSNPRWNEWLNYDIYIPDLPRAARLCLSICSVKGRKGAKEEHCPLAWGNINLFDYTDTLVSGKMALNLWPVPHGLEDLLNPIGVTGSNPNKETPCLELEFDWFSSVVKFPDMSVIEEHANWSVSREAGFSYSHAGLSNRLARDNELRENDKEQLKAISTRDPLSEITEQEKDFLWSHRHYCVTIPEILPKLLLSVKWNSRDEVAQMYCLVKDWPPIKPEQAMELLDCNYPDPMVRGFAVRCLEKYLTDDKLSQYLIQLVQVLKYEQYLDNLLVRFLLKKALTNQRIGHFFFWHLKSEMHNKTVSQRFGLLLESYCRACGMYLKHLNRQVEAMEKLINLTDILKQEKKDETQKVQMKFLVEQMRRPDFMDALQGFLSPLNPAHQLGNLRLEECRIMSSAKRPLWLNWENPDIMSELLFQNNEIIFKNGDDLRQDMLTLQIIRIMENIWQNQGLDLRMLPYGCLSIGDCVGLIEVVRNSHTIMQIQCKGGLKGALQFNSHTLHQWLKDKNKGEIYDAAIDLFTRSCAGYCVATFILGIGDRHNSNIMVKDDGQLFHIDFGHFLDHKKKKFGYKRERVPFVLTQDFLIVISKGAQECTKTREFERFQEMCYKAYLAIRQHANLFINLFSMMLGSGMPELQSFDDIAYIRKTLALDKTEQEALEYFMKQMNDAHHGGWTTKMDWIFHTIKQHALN
T1 sequence (P27986 whole entry partner): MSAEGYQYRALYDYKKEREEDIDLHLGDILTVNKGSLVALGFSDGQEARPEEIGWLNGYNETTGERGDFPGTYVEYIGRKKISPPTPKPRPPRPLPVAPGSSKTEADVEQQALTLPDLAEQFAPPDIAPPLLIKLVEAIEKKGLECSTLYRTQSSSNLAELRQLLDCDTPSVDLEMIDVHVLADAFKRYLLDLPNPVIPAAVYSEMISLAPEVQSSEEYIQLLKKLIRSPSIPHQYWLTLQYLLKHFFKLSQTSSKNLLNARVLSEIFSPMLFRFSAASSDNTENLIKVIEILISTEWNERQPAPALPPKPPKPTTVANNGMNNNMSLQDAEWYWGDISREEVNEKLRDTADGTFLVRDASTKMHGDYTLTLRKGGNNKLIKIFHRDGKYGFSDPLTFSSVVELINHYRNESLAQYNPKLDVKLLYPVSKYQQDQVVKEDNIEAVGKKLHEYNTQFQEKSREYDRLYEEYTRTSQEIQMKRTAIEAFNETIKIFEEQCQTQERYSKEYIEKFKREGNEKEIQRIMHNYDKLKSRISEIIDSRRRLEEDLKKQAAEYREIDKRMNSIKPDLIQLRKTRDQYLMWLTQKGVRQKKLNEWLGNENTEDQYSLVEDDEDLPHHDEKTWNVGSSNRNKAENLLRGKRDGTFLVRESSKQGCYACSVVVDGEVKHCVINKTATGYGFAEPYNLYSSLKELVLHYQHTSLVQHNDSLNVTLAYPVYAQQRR
mTOR, sequence (P42345 1360-2549): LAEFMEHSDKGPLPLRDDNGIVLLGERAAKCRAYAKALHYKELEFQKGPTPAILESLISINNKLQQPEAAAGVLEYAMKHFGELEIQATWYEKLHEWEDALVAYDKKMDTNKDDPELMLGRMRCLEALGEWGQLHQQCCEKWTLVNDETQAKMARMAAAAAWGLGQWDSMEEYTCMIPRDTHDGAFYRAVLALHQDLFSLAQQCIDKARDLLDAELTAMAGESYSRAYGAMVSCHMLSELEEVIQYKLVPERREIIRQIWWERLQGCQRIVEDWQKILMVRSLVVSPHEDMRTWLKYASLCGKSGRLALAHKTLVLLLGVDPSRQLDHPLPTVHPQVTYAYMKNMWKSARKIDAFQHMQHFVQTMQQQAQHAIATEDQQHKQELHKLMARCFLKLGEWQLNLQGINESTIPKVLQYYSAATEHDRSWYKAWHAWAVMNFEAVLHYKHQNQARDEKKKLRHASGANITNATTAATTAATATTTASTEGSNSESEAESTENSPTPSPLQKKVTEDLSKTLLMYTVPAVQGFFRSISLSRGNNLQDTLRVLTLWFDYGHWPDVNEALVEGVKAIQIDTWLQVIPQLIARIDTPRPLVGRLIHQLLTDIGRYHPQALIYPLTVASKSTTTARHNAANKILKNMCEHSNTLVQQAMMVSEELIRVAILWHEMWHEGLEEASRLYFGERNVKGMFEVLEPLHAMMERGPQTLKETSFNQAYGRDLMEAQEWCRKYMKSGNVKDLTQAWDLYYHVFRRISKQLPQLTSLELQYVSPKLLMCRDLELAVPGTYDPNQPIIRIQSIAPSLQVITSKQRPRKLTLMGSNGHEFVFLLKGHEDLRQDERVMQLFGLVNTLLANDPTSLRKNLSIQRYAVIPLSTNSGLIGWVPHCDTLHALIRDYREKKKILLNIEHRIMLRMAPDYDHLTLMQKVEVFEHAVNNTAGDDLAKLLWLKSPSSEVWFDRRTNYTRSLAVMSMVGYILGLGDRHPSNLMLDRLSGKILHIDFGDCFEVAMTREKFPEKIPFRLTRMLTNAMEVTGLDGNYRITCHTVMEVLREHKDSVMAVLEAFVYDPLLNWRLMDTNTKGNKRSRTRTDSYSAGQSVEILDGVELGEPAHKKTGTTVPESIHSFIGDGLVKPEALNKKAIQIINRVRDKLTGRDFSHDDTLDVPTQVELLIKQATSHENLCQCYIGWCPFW
Protocol for mTOR: The inhibitory property of a compound relative to mTOR catalysis was determined by using the Z-Lyte™ biochemical assay conducted by Invitrogen Corporation (Madison, Wis.), which employs a fluorescence-based, coupled-enzyme format and is based on the differential sensitivity of phosphorylated and non-phosphorylated peptides to proteolytic cleavage. The peptide substrate is labeled with two fluorophores—one at each end—that make up a FRET pair.
In the primary reaction, the kinase transfers the gamma-phosphate of ATP to a single tyrosine, serine or threonine residue in a synthetic FRET-peptide. In the secondary reaction, a site-specific protease recognizes and cleaves non-phosphorylated FRET-peptides. Phosphorylation of FRET-peptides suppresses cleavage by the Development Reagent. Cleavage disrupts FRET between the donor (i.e., coumarin) and acceptor (i.e., fluorescein) fluorophores on the FRET-peptide, whereas uncleaved, phosphorylated FRET-peptides maintain FRET. A ratio metric method, which calculates the ratio (the Emission Ratio) of donor emission to acceptor emission after excitation of the donor fluorophore at 400 nm, is used to quantitate reaction progress, as shown in the equation below.
A significant benefit of this ratio metric method for quantitating reaction progress is the elimination of well-to-well variations in FRET-peptide concentration and signal intensities. […] Both cleaved and uncleaved FRET-peptides contribute to the fluorescence signals and therefore to the Emission Ratio. The extent of phosphorylation of the FRET-peptide can be calculated from the Emission Ratio.
Recombinant human mTOR enzyme (amino acids 1360-2549), GST-tagged, expressed in and purified from insect cells (Invitrogen Corp. Cat. #PV4753; also known as FRAP1) was used for the assay. The 2×FRAP1 (mTOR)/Ser/Thr 11 Peptide Mixture (Invitrogen Corp.) was prepared in buffer containing 50 mM HEPES pH 7.5, 0.01% BRIJ-35, 10 mM MnCl2, 1 mM EGTA, 2 mM DTT, and 0.02% NaN3. The final 10 μL Kinase Reaction consisted of 7.2-58.1 ng FRAP1 (mTOR) and 2 μM Ser/Thr 11 Peptide in buffer containing 50 mM HEPES pH 7.5, 0.01% BRIJ-35, 5 mM MgCl2, 5 mM MnCl2, 1 mM EGTA, 1 mM DTT, and 0.01% NaN3.
Test compounds are screened in 1% DMSO (final) in the well. For 10 point titrations, 3-fold serial dilutions are conducted from the starting concentration. The Ser/Thr 11 Peptide/Kinase Mixture was diluted to a 2× working concentration in buffer containing 50 mM HEPES pH 7.5, 0.01% BRIJ-35, 10 mM MnCl2, 1 mM EGTA, 2 mM DTT, and 0.02% NaN3. The ATP solution was diluted to a 4× working concentration in buffer containing 50 mM HEPES pH 7.5, 0.01% BRIJ-35, 10 mM MgCl2, and 1 mM EGTA.
After the 1 hour Kinase Reaction incubation, 5 μL of a 1:16 dilution of Development Reagent B was added, and the development reaction was allowed to proceed for an additional 1 hour at room temperature. The assay plate was then read on a fluorescence plate reader and the data analyzed as outlined above.
IC50 values were calculated by non-linear least squares curve fitting using XLfit from IDBS to fit the results to model number 205 (sigmoidal dose-response model).

As to `CC(=O)Nc1nc2ccc(-c3ccc(C(C)(C)C#N)cc3)nc2s1` [Example 5, N-(5-(4-(2-Cyanopropan-2-yl)phenyl)thiazolo[5,4-b]pyridin-2-yl)acetamide], the concentration for half-maximal inhibition (IC50) (in assay [1]; against mTOR) was greater than 1000 nM in each case.
In the case of `CC(=O)Nc1nc2ccc(-c3cccc4[nH]ccc34)cc2s1` [Example 14, N-(6-(1H-Indol-4-yl)benzo[d]thiazol-2-yl)acetamide], the 50% inhibitory concentration (IC50) (in assay [1]; at mTOR) was greater than 1000 nM each time.
`CC(=O)Nc1nc2ccc(-c3ccc4[nH]cc(C#N)c4c3)cc2s1` [Example 16, N-(6-(3-Cyano-1H-indol-5-yl)benzo[d]thiazol-2-yl)acetamide]: the IC50 in assay [1] is greater than 1000 nM; on mTOR, 100 to 1000 nM.
On to `CC(=O)Nc1nc2ccc(-c3ccc4c(c3)NC(=O)CNC4=O)cc2s1` [Example 21, N-(6-(2,5-Dioxo-2,3,4,5-tetrahydro-1H-benzo[e][1,4]diazepin-8-yl)benzo[d]thiazol-2-yl)acetamide], for which the IC50 (in assay [1]; on mTOR) was greater than 1000 nM throughout.
At mTOR, `CC(=O)Nc1nc2ccc(-c3cnc4[nH]ccc4c3)nc2s1` [Example 24, N-(5-(1H-Pyrrolo[2,3-b]pyridin-5-yl)thiazolo[5,4-b]pyridin-2-yl)acetamide] displayed an IC50 of less than 100 nM.
On the same count and under the same terms, the figure for `CC(=O)Nc1nc2ccc(-c3cnc4cc[nH]c4c3)nc2s1` [Example 25, N-(5-(1H-Pyrrolo[3,2-b]pyridin-6-yl)thiazolo[5,4-b]pyridin-2-yl)acetamide] is less than 100 nM.
Consider `CC(=O)Nc1nc2ccc(-c3ccc(S(C)(=O)=O)cc3)nc2s1` [Example 26, N-(5-(4-(Methylsulfonyl)phenyl)thiazolo[5,4-b]pyridine-2-yl)acetamide], for which the IC50 (in assay [1]; on mTOR) was greater than 1000 nM in each case.
Molecule `CONC(=O)c1cccc(-c2ccc3nc(NC(C)=O)sc3n2)c1` [Example 27, 3-(2-Acetamidothiazolo[5,4-b]pyridin-5-yl)-N-methoxybenzamide] showed an IC50 against mTOR greater than 1000 nM.
Turning to `CNS(=O)(=O)c1ccc(-c2ccc3nc(NC(C)=O)sc3n2)cc1` [Example 28, N-(5-(4-(N-Methylsulfamoyl)phenyl)thiazolo[5,4-b]pyridine-2-yl)acetamide], the half-inhibitory concentration (IC50) (in assay [1]; at mTOR) was greater than 1000 nM each time.
For `CC(=O)Nc1nc2ccc(-c3ccc(NS(C)(=O)=O)cc3)nc2s1` [Example 29, N-(5-(4-(Methylsulfonamido)phenyl)thiazolo[5,4-b]pyridin-2-yl)acetamide], the IC50 (in assay [1]; on mTOR) was 100 to 1000 nM throughout. Besides, the negative-log IC50 (pIC50) in assay [1] (exact value in text, read-out: IC50 value for PI3K) is 6.51; on mTOR (IC50 value for mTOR, exact value in text) it was 6.10.
In turn, `CONC(=O)c1ccc(-c2ccc3nc(NC(C)=O)sc3n2)cc1` [Example 30, 4-(2-Acetamidothiazolo[5,4-b]pyridin-5-yl)-N-methoxybenzamide] displayed an IC50 against mTOR of 100 to 1000 nM.
Still for that read-out and setting: the figure for `CC(=O)Nc1nc2ccc(-c3ccc4c(c3)CC(=O)N4)nc2s1` [Example 31, N-(5-(2-oxoindolin-5-yl)thiazolo[5,4-b]pyridin-2-yl)acetamide] is 100 to 1000 nM.
For `CC(=O)Nc1nc2ccc(-c3cc(NS(C)(=O)=O)c4[nH]ccc4c3)cc2s1` [Example 32, N-(6-(7-(Methylsulfonamido)-1H-indol-5-yl)benzo[d]thiazol-2-yl)acetamide], the IC50 (in assay [1]; against mTOR) was greater than 1000 nM throughout.
Regarding `CC(=O)Nc1nc2ccc(-c3ccncc3)nc2s1` [Example 33, N-(5-(Pyridin-4-yl)thiazolo[5,4-b]pyridin-2-yl)acetamide], at mTOR, the 50% inhibitory concentration (IC50) was greater than 1000 nM.
Still for that read-out and setting: the figure for `CC(=O)Nc1nc2ccc(-c3ccccc3N)nc2s1` [Example 34, N-(5-(2-Aminophenyl)thiazolo[5,4-b]pyridin-2-yl)acetamide] is greater than 1000 nM; for `CNC(=O)c1ccc(-c2ccc3nc(NC(C)=O)sc3n2)cc1` [Example 35, 4-(2-Acetamidothiazolo[5,4-b]pyridin-5-yl)-N-methylbenzamide] it is less than 100 nM.
For the molecule `CC(=O)Nc1ccc(-c2ccc3nc(NC(C)=O)sc3n2)cc1` [Example 36, N-(5-(4-Acetamidophenyl)thiazolo[5,4-b]pyridin-2-yl)acetamide], at mTOR, the concentration for half-maximal inhibition (IC50) lay in the range of 100 to 1000 nM.
Turning to `CC(=O)Nc1nc2ccc(-c3ccc(C(=O)NC4CC4)cc3)nc2s1` [Example 37, 4-(2-Acetamidothiazolo[5,4-b]pyridin-5-yl)-N-cyclopropylbenzamide], the 50% inhibitory concentration (IC50) on mTOR fell in the range of 100 to 1000 nM.
Same read-out and setting: the value for `CC(=O)Nc1nc2ccc(-c3ccc(C(N)=O)cc3)nc2s1` [Example 38, 4-(2-Acetamidothiazolo[5,4-b]pyridin-5-yl)benzamide] was less than 100 nM; that for `CC(=O)Nc1ccc(-c2ccc3nc(NC(C)=O)sc3c2)cc1` [Example 39, N-(4-(2-Acetamidobenzo[d]thiazol-6-yl)phenyl)acetamide] was 100 to 1000 nM.
Molecule `CNC(=O)c1cccc(-c2ccc3nc(NC(C)=O)sc3c2)c1` [Example 40, 3-(2-Acetamidobenzo[d]thiazol-6-yl)-N-methylbenzamide] displayed a 50% inhibitory concentration (IC50) on mTOR greater than 1000 nM.
Consider `CC(=O)Nc1cccc(-c2ccc3nc(NC(C)=O)sc3c2)c1` [Example 41, N-(3-(2-Acetamidobenzo[d]thiazol-6-yl)phenyl)acetamide], for which the half-inhibitory concentration (IC50) (in assay [1]; at mTOR) was greater than 1000 nM throughout.
For the molecule `CC(=O)Nc1nc2ccc(-c3ccc(-c4nnc[nH]4)cc3)nc2s1` [Example 42, N-(5-(4-(4H-1,2,4-Triazol-3-yl)phenyl)thiazolo[5,4-b]pyridin-2-yl)acetamide], at mTOR, the half-inhibitory concentration (IC50) is less than 100 nM.
The same measure, in the same setting: the value for `CCS(=O)(=O)Nc1cc(-c2ccc3nc(NC(C)=O)sc3n2)cnc1Cl` [Example 47, N-(5-(6-Chloro-5-(ethylsulfonamido)pyridin-3-yl)thiazolo[5,4-b]pyridin-2-yl)acetamide] was less than 100 nM; that for `CC(=O)Nc1nc2ccc(-c3cnc(Cl)c(NS(C)(=O)=O)c3)cc2s1` [Example 48, N-(6-(6-Chloro-5-(methylsulfonamido)pyridin-3-yl)benzo[d]thiazol-2-yl)acetamide] was less than 100 nM.
The same measure, in the same setting: the value for `CC(=O)Nc1nc2ccc(-c3cnc(Cl)c(NS(=O)(=O)C4CC4)c3)nc2s1` [Example 49, N-(5-(6-Chloro-5-(cyclopropanesulfonamido)pyridin-3-yl)thiazolo[5,4-b]pyridin-2-yl)acetamide] was greater than 1000 nM.
